Results on ten compounds are retold here after patent publication US20230372498A1, “PLK1 SELECTIVE DEGRADATION INDUCING COMPOUND” (UPPTHERA, priority 2020, published 2023).

In the experiment the target is T1, PLK1 (Homo sapiens, UniProt P53350).
T1 construct: endogenous in cells; host or cells: HeLa
As to the kind of experiment: PLK1 protein degradation in HeLa cells, Western blotting (PLK1/GAPDH ratio). The format is cell-based. The settings on record: 6 hours compound incubation; for DC50: measured only if the grade of Dmax is A or B; for Dmax: thymidine block and release, 10 points three-fold from 3 μM, PLK1 to GAPDH ratio. The source says:
The HeLa cell line was purchased from Korea Cell Line Bank (KCLB), Seoul, Korea. The passage in cell culture was maintained at P115 to P125.
For cell culture, DMEM (Gibco, Cat. No. 1195-65; Lot. No. 2085318), FBS (Gibco, Cat. No. 16000-044; Lot. No. 2097593), Penicillin/Streptomycin (PS) (Gibco, Cat. No. 15140-122; Lot. No. 2058855), 100 mm^2 cell culture dish (SPL, Cat. No. 20100), 150 mm^2 cell culture dish (SPL, Cat. No. 20150), 12-well culture plate (SPL, Cat. No. 30012), PBS pH 7.4 (Gibco, Cat. No. 10010-023; Lot. No. 2085080), TrypLE™ Express (Gibco, Cat. No. 12605-010; Lot No. 2070638), Counting Chamber (Hematocytometer) (Hirschmann, Cat. No. 8100204), and 0.4% Trypan Blue Solution (DYNEBIO, Cat. No. CBT3710; Lot. No. 20190723) were used.
2×10^5 cells were seeded for each well of a 12-well plate (SPL), and the cells were cultured in the culture medium in a total volume of 2 ml.
The compounds of Examples were completely dissolved in DMSO and used in the experiment, and thymidine was completely dissolved in DW and used in the experiment. For thymidine block, the products were treated with 2 mM of thymidine (Sigma-Aldrich Cat. No. T9250-5G) and then incubated for 24 hours.
For release and chemical treatment, the medium was suctioned and washed 3 times with 1×PBS. Complete media was added, followed by incubation for 4 hours in a CO2 incubator. Each compound was diluted three folds from the highest concentration of 3 μM to the lowest concentration in 10 points and then incubated for 6 hours again.
For SDS-PAGE and Western blotting, 1×RIPA lysis buffer (Rockland, Cat. No. MB-030-0050; Lot no. 39751), 100× Protease Inhibitor Cocktail (Quartett, Cat. No. PPI1015; Lot no. PCO50038424), Pierce™ BCA protein assay kit (ThermoScientific, Cat. No. 23225; Lot no. UC276876), albumin standard (ThermoScientific, Cat. No. 23209; Lot no. UB269561), 4-15% Mini-PROTEAN TGX stain-free gel (Bio-rad, Cat. No. 4568085; Lot no. L007041B), 10× Tris/Glycine/SDS buffer (Bio-rad, Cat. No. 1610732; Lot no. 10000044375B); 10×TBS (Bio-rad, Cat. No. 1706435; Lot no. 1000045140B), 10% Tween 20 (Cat. No. 1610781; Lot no. L004152B), Color protein standard broad range (NEB, Cat. No. P7719S; Lot no. 10040349), 4× Laemmli sample buffer (Bio-rad, Cat. No. 1610747; Lot no. L004133B), β-mercaptoethanol (Sigma-Aldrich, Cat. No. M3148; Lot no. 60-24-2), SuperBlock™ T20 (TBS) blocking buffer (ThermoScientific, Cat. No. 37536; Lot no. UC282578), 1M sodium azide solution (Sigma-Aldrich, Cat. No. 08591-1 mL-F; Lot no. BCBV4989), α-Rabbit pAb to Ms IgG (abcam, Cat. No. ab97046; Lot no. GR3252115-1), α-Goat pAb to Rb IgG (CST, Cat. No. 7074S; Lot no. 28), α-GAPDH (abcam, Cat. No. ab8245; Lot no. GR3275542-2), α-Plk1 (CST, Cat. No. 208G4), α-BRD4 (CST, Cat. No. 13440S), ECL™ Prime western blotting reagents (GE Healthcare, Cat. No. RPN2232; Lot no. 17001655), Ponceau S solution (Sigma-Aldrich, Cat. No. P7170; Lot no. SLBV4112), Difco™ Skim milk (BD, Cat. No. 232100; Lot no. 8346795), and iBlot® 2 NC Regular stacks (Invitrogen, Cat. No. IB323001; Lot no. 2NR110619-02) were used.
For cell harvesting, the cells were first separated from the plate using trypsin and then washed with the medium and PBS. Specifically, the medium was suctioned off and washed with 1 mL of PBS, and PBS was suctioned off. The cells were treated with 0.5 mL TrypLE™ Express at 37° C. for 7 minutes to separate the cells, and then 0.5 mL of complete medium was added to collect 1 mL of cell culture solution. Then, 1 mL of the cell collection solution was centrifuged at 8,000 rpm for 120 seconds, and the supernatant was removed. After washing with 0.2 mL of PBS, the PBS was removed.
For cell lysis, a lysis buffer was added and cell debris was removed to obtain a cell lysate. Specifically, the cells were treated with 70 μL of 1×RIPA buffer containing a protease inhibitor and incubated for 30 minutes on ice. Then, the cells were centrifuged at 4° C. and 15,000 rpm for 10 minutes to obtain a cell lysate. […]
For orientation: In western blotting, separated proteins are transferred to a membrane and probed.

Read-outs that look alike come from different tables or passages of the source.

The term DC50 denotes the midpoint of the concentration-degradation curve. A word on the Dmax: it is the greatest extent of degradation seen.

T1 sequence (P53350 whole entry): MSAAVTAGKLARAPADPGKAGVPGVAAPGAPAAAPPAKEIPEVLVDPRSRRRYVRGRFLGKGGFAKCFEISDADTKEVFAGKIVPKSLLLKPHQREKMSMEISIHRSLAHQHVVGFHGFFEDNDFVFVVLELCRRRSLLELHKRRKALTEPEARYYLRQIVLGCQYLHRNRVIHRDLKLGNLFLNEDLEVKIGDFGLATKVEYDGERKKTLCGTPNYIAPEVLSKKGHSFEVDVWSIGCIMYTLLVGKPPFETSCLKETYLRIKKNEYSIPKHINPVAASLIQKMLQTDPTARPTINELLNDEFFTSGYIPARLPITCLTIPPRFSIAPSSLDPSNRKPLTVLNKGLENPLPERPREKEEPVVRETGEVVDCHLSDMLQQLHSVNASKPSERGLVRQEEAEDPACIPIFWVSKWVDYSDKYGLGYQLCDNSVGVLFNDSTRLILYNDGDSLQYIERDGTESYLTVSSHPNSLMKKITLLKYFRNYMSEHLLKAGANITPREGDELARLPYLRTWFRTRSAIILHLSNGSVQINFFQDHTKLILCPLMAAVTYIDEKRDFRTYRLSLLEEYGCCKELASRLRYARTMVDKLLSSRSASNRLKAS

As to `COc1cc(C(=O)NC2CCN(CCOCCNc3cccc4c3C(=O)N(C3CCC(=O)NC3=O)C4=O)C2)c(F)cc1Nc1ncc2c(n1)N(C1CCCC1)CC(F)(F)C(=O)N2C` (stereo not shown) [Example 106, 4-((9-cyclopentyl-7,7-difluoro-5-methyl-6-oxo-6,7,8,9-tetrahydro-5H-pyrimido[4,5-b][1,4]diazepin-2-yl)amino)-N-(1-(2-(2-((2-(2,6-dioxopiperidin-3-yl)-1,3-dioxoisoindolin-4-yl)amino)ethoxy)ethyl)pyrrolidin-3-yl)-2-fluoro-5-methoxybenzamide], the 50% degradation concentration (DC50) was ≤ 500 nM. For the same compound, the greatest degradation seen (Dmax) (read-out: Dmax) was 60 to 80%.

In the case of `COc1cc(C(=O)NC2CCN(CCCOCCCNc3cccc4c3C(=O)N(C3CCC(=O)NC3=O)C4=O)CC2)c(F)cc1Nc1ncc2c(n1)N(C1CCCC1)CC(F)(F)C(=O)N2C` (stereo not shown) [Compound 18, 4-((9-cyclopentyl-7,7-difluoro-5-methyl-6-oxo-6,7,8,9-tetrahydro-5H-pyrimido[4,5-b][1,4]diazepin-2-yl)amino)-N-(1-(3-(3-((2-(2,6-dioxopiperidin-3-yl)-1,3-dioxoisoindolin-4-yl)amino)propoxy)propyl)piperidin-4-yl)-2-fluoro-5-methoxybenzamide], the DC50 is ≤ 500 nM. In addition, the Dmax (read-out: Dmax) fell in the range of 60 to 80%.

As to `COc1cc(C(=O)NC2CCN(CCCCCCCCCNc3cccc4c3C(=O)N(C3CCC(=O)NC3=O)C4=O)CC2)c(F)cc1Nc1ncc2c(n1)N(C1CCCC1)CC(F)(F)C(=O)N2C` (stereo not shown) [Compound 13], the DC50 is ≤ 500 nM; the greatest degradation seen (Dmax) result is “B (B: Dmax is 80% or less and 60% or more)”.

With `COc1cc(C(=O)NC2CCN(CCOCCOCCOCCOc3cc(-c4scnc4C)ccc3CNC(=O)[C@@H]3C[C@@H](O)CN3C(=O)[C@@H](NC(=O)C3(F)CC3)C(C)(C)C)CC2)c(F)cc1Nc1ncc2c(n1)N(C1CCCC1)CC(F)(F)C(=O)N2C` [Example 87, (2S,4R)—N-(2-(2-(2-(2-(2-(4-(4-((9-cyclopentyl-7,7-difluoro-5-methyl-6-oxo-6,7,8,9-tetrahydro-5H-pyrimido[4,5-b][1,4]diazepin-2-yl)amino)-2-fluoro-5-methoxybenzamido)piperidin-1-yl)ethoxy)ethoxy)ethoxy)ethoxy)-4-(4-methylthiazol-5-yl)benzyl)-1-((S)-2-(1-fluorocyclopropane-1-carboxamido)-3,3-dimethylbutanoyl)-4-hydroxypyrrolidine-2-carboxamide], where the note is “read-out: Dmax”, the Dmax was < 60%.

Consider `CN1C(=O)C(F)(F)CN(C2CCCC2)c2nc(Nc3cc(F)c(C(=O)NC4CCN(CCOCCOCCNc5cccc6c5C(=O)N(C5CCC(=O)NC5=O)C6=O)CC4)cc3OCCO)ncc21` (stereo not shown) [Example 97, 4-((9-cyclopentyl-7,7-difluoro-5-methyl-6-oxo-6,7,8,9-tetrahydro-5H-pyrimido[4,5-b][1,4]diazepin-2-yl)amino)-N-(1-(2-(2-(2-((2-(2,6-dioxopiperidin-3-yl)-1,3-dioxoisoindolin-4-yl)amino)ethoxy)ethoxy)ethyl)piperidin-4-yl)-2-fluoro-5-(2-hydroxyethoxy)benzamide], for which the Dmax (read-out: Dmax) was < 60%.

As for `COc1cc(C(=O)NC2CCN(CCOCCOCCNc3cccc4c3C(=O)N(C3CCC(=O)N(C)C3=O)C4=O)CC2)c(F)cc1Nc1ncc2c(n1)N(C1CCCC1)CC(F)(F)C(=O)N2C` (stereo not shown) [Compound 6, 4-((9-cyclopentyl-7,7-difluoro-5-methyl-6-oxo-6,7,8,9-tetrahydro-5H-pyrimido[4,5-b][1,4]diazepin-2-yl)amino)-2-fluoro-5-methoxy-N-(1-(2-(2-(2-((2-(1-methyl-2,6-dioxopiperidin-3-yl)-1,3-dioxoisoindolin-4-yl)amino)ethoxy)ethoxy)ethyl)piperidin-4-yl)benzamide], the Dmax (read-out: Dmax) is < 60%.

As for `COc1cc(C(=O)NC2CCN(CCCOCCCCNc3cccc4c3C(=O)N(C3CCC(=O)NC3=O)C4=O)CC2)c(F)cc1Nc1ncc2c(n1)N(C1CCCC1)CC(F)(F)C(=O)N2C` (stereo not shown) [Compound 20, 4-((9-cyclopentyl-7,7-difluoro-5-methyl-6-oxo-6,7,8,9-tetrahydro-5H-pyrimido[4,5-b][1,4]diazepin-2-yl)amino)-N-(1-(3-(4-((2-(2,6-dioxopiperidin-3-yl)-1,3-dioxoisoindolin-4-yl)amino)butoxy)propyl)piperidin-4-yl)-2-fluoro-5-methoxybenzamide], for the setting “read-out: Dmax”, the maximal degradation (Dmax) was < 60%.

In the case of `COc1cc(C(=O)NC2CCN(CC(=O)NCCOCCOCCOCCNc3cccc4c3C(=O)N(C3CCC(=O)NC3=O)C4=O)CC2)c(F)cc1Nc1ncc2c(n1)N(C1CCCC1)CC(F)(F)C(=O)N2C` (stereo not shown) [Compound 36, 4-((9-cyclopentyl-7,7-difluoro-5-methyl-6-oxo-6,7,8,9-tetrahydro-5H-pyrimido[4,5-b][1,4]diazepin-2-yl)amino)-N-(1-(14-((2-(2,6-dioxopiperidin-3-yl)-1,3-dioxoisoindolin-4-yl)amino)-2-oxo-6,9,12-trioxa-3-azatetradecyl)piperidin-4-yl)-2-fluoro-5-methoxybenzamide], the DC50 was ≤ 50 nM. In addition, the Dmax (read-out: Dmax) was ≥ 80%.

On to `COc1cc(C(=O)NC2CCN(CCOCCOCCCc3cccc4c3C(=O)N(C3CCC(=O)NC3=O)C4=O)CC2)c(F)cc1Nc1ncc2c(n1)N(C1CCCC1)CC(F)(F)C(=O)N2C` (stereo not shown) [Compound 55, 4-((9-cyclopentyl-7,7-difluoro-5-methyl-6-oxo-6,7,8,9-tetrahydro-5H-pyrimido[4,5-b][1,4]diazepin-2-yl)amino)-N-(1-(2-(2-(3-(2-(2,6-dioxopiperidin-3-yl)-1,3-dioxoisoindolin-4-yl)propoxy)ethoxy)ethyl)piperidin-4-yl)-2-fluoro-5-methoxybenzamide], for which the half-maximal degradation concentration (DC50) is ≤ 500 nM. The Dmax (read-out: Dmax) is 60 to 80%.

On to `COc1cc(C(=O)NC2CC3(C2)CN(C(=O)CCNc2cccc4c2C(=O)N(C2CCC(=O)NC2=O)C4=O)C3)c(F)cc1Nc1ncc2c(n1)N(C1CCCC1)CC(F)(F)C(=O)N2C` (stereo not shown) [Compound 159, 4-((9-cyclopentyl-7,7-difluoro-5-methyl-6-oxo-6,7,8,9-tetrahydro-5H-pyrimido[4,5-b][1,4]diazepin-2-yl)amino)-N-(2-(3-((2-(2,6-dioxopiperidin-3-yl)-1,3-dioxoisoindolin-4-yl)amino)propanoyl)-2-azaspiro[3.3]heptan-6-yl)-2-fluoro-5-methoxybenzamide], for which the DC50 was ≤ 50 nM. Besides, the Dmax (read-out: Dmax) was ≥ 80%.
